Data as given in patent publication US20070087376A1, “Splice variants of pre-mRNA transcripts as biomarkers in idiopathic neurodegenerative diseases” (priority 2004, published 2007).

What was measured:
[1] = system: AChE splice variants (AChE-R and AChE-S mRNA); assay: AChE splice variant mRNA levels in blood of MPTP-treated mice, RT-PCR; format: in vivo, mouse
Text: (§1) Mice were then euthanized either at 3 days or 3 weeks after treatment. Two time periods were selected in order to characterizing splicing events in the blood over time. Controls for the acute group include mice treated with saline and, for the chronic experiments, mice treated with probenecid or saline.
(§2) Blood specimens for assaying RNA from the mice described in Example 1 above were obtained as follows. Mice were sacrificed by cervical dislocation and the heart lacerated to release the blood. Approximately 50 μl of 0.05 M EDTA, pH 8.0 was added to the chest cavity to prevent the blood from coagulating. Blood was collected in a sterile 1 ml syringe that was initially rinsed in 0.50 M EDTA pH 8.0.
(§3) RNA from blood samples obtained as described in Example 2 was separated on a 1.8% agarose gel and stained with 5 μl of ethidium bromide (10 mg/ml stock) diluted into 10 ml of a TAE buffer (pH 8.5 40 mM Tris.acetate, 2 mM Na2EDTA.2H2O. After staining, the RNA was visualized on a UV light box and the 18S RNA band was quantified. The image was captured using a Kodak EDAS290 system (Kodak, Rochester, N.Y.) and the Kodak 1D Image Analysis software (Kodak, Rochester, N.Y.) was used to quantify. Other similar cameras and analysis softwares will also work.
(§4) Splice variant mRNA was assayed using reverse transcriptase polymerase chain reactions (RT-PCR) as described in U.S. patent application Ser. No.: 11/215,842. PCR conditions for amplification of FosB, RGS9, AchE, Ania6 and NDUFS4 are the same as disclosed in U.S. patent application Ser. No.: 11/215,842 except different kits were used for FosB and RGS9 compared to the other 3 transcripts.
• 1. 95° C. 8 minutes • 2. 95° C. 30 seconds • 3. 57° C. 30 seconds • 4. 72° C. 30 seconds • 5. Repeat from step 2 35 times • 6. 72° C. 10 minutes RGS9 (SYBR green, Applied Biosystems, Foster City, Calif.) • 1. 95° C. 8 minutes • 2. 95° C. 30 seconds • 3. 54° C. 30 seconds • 4. 72° C. 30 seconds • 5. Repeat from step 2 35 times • 6. 72° C. 10 minutes AChE (go Taq Green, Promega, Madison, Wis.) • 1. 95° C. 5 minutes • 2. 95° C. 30 seconds • 3. 61° C. 30 seconds • 4. 72° C. 30 seconds • 5. Repeat from step 2 30 times • 6. 72° C. 5 minutes NDUFS4 (go Taq Green, Promega, Madison, Wis.) • 1. 95° C. 5 minutes • 2. 95° C. 30 seconds • 3. 64° C. 30 seconds • 4. 72° C. 30 seconds • 5. Repeat from step 2 30 times • 6. 72° C. 5 minutes Ania (go Taq Green, Promega, Madison, Wis. • 1. 95° C. 5 minutes • 2. 95° C. 30 seconds • 3. 57° C. 30 seconds • 4. 72° C. 30 seconds • 5. Repeat from step 2 35 times • 6. 72° C. 5 minutes Primers used in the PCR Assays: […]
We investigated whether the amount of the splice variants of acetylcholinesterase (AChE) changed after MPTP toxin treatment. AChE hydrolyzes acetylcholine (ACh) and thereby functions to terminate Ach-mediated neurotransmission. In many neuropathologies, the characteristics of AChE are modified in the central nervous system. We looked at the AChE-S and ACHE-R splice variants. The AChE-S mRNA produces the canonical synaptic tetrameric form of the enzyme. AChE-S is formed by skipping exon 5 such that the final mRNA is composed of exons 1-4 and exon 6 (FIG. 5). The protein produced from this transcript has a cysteine-containing carboxyl-terminus that allows for the formation of the tetramer. AChE-R, produces a read-through transcript in which a downstream splice donor is spliced to the intron 4 3′ splice site such that exon 5 is included in the mRNA (FIG. 6). This produces a protein with a different carboxyl-terminus than the synaptic form. […]

[2] = system: Ania6 splice variants (Ania6 and Ania6a mRNA); assay: Ania6 splice variant mRNA levels in blood of MPTP-treated mice, RT-PCR; format: in vivo, mouse; conditions: chronic MPTP treatment
Text: as §1, §2
as §3, with “work. […]” for “work.”

[3] = system: NDUFS4 splice variants (NDUFS4 and NDUFS4-SV3 mRNA); assay: NDUFS4 splice variant mRNA levels in MPTP-treated mice, RT-PCR; format: in vivo, mouse; conditions: chronic MPTP treatment
Text: as §1, §2, §3, §4
• 1. 95° C. 8 minutes • 2. 95° C. 30 seconds • 3. 57° C. 30 seconds • 4. 72° C. 30 seconds • 5. Repeat from step 2 35 times • 6. 72° C. 10 minutes RGS9 (SYBR green, Applied Biosystems, Foster City, Calif.) • 1. 95° C. 8 minutes • 2. 95° C. 30 seconds • 3. 54° C. 30 seconds • 4. 72° C. 30 seconds • 5. Repeat from step 2 35 times • 6. 72° C. 10 minutes AChE (go Taq Green, Promega, Madison, Wis.) • 1. 95° C. 5 minutes • 2. 95° C. 30 seconds • 3. 61° C. 30 seconds • 4. 72° C. […]

[4] = system: RGS9 splice variants (RGS9-1 and RGS9-2 mRNA); assay: RGS9 splice variant mRNA levels in blood of MPTP-treated mice, RT-PCR; format: in vivo, mouse
Text: as §1, §2
as §3, with “work. […]” for “work.”

[5] = system: transcripts that have splice variants; conditions: mptp study, cited from earlier work
[6] = system: FosB splice variants (FosB and ΔFosB mRNA); assay: FosB splice variant mRNA levels in blood of MPTP-treated (Parkinsonian) mice, RT-PCR; format: in vivo, mouse; conditions: vs vehicle
Text: as §1, §2
as §3, with “work. […]” for “work.”

[7] = chronic MPTP treatment, 3 days and 3 weeks after

CN1CC=C(c2ccccc2)CC1 [MPTP, 1-methyl-4-phenyl-1,2,3,6-tetrahydropyridine]
AChE-R mRNA/18S RNA ([1]; acute MPTP treatment): increases | AChE-R mRNA/AChE-S mRNA ([1]; acute MPTP treatment): increases | AChE-R mRNA/AChE-S mRNA ([1]; chronic MPTP treatment): decreases | AChE-S mRNA/18S RNA ([1]; chronic MPTP treatment): increases | AChE-R mRNA/18S RNA [1, 7]: decreases and remains lower for 3 weeks | Ania6a mRNA/18S RNA [2]: increases | Ania6 mRNA/18S RNA ([2]; 3 days and 3 weeks after): decreases after chronic MPTP treatment and remains lower for 3 weeks | NDUFS4 mRNA/18S RNA [3]: decreases | NDUFS4-SV3 mRNA/18S RNA ([3]; 3 days and 3 weeks after): decreases after chronic MPTP treatment and remains lower for 3 weeks | NDUFS4-SV3 mRNA/NDUFS4 mRNA ([3]; 3 days and 3 weeks after): decreases after chronic MPTP treatment and remains lower for 3 weeks | RGS9-2 mRNA/18S RNA ([4]; acute MPTP treatment): decreases | RGS9-2 mRNA/RGS9-1 [4, 7]: decreases after chronic MPTP treatment and remains lower for 3 weeks | Change of BAX M, isoform-a transcript ([5]; function Apoptosis): Up | Change of Cyclin B2 transcript ([5]; function Cell cycle): Down | Change of Alpha-synuclein transcript ([5]; function PD-associated): Up | Change of Ach N receptor transcript ([5]; function Receptors): Up | Change of IL-1 recept II transcript ([5]; function Receptors): Up | Change of IL-2 rp-G transcript ([5]; function Receptors): Up | Change of IL-10 transcript ([5]; function Receptors): Up | Change of Gtase transcript ([5]; function Stress): Down | FosB mRNA/18S RNA ([6]; acute MPTP treatment (20 mg/kg, 4 times, every 2 hours), euthanized 3 days later): decreases | ΔFosB mRNA/18S RNA ([6]; chronic MPTP (25 mg/kg s.c.) and probenecid, twice each week for 5 weeks): decreases
